The values that follow come from publication PMC7904827 (Scientific Reports, 2021).

Read-outs that look alike come from different tables or passages of the source.

On the set-up of series [1]: method as in PMID 29273587. Particulars: DEX in the same species (rabbit); cited from earlier work.
The test system of series [2] is neonatal ventricular cardiomyocytes (NVCMs). Conditions: same assay; cited from earlier work.
Series [3] in a line: In vivo pharmacokinetic study of GK-667 in rabbits, noncompartmental analysis. Also on record: species or system rabbit. How it is done: GK-667 was freshly dissolved in saline (5 mg/mL) before each administration. New Zealand White male rabbits (n = 6, ∼3.8 kg) received GK-667 (5 mg/kg) administered as a single slow (2 min) intravenous dose bolus to the ear marginal vein. Blood (∼1 mL) was sampled from veins on the contralateral ear at selected time points after drug administration (5 min to 9 h) into BD Vacutainers (BD Biosciences, Plymouth, UK) containing lithium heparin. Collected blood samples were immediately centrifuged (2 min, 3000 rpm, 4 °C), and plasma samples were harvested directly.
Plasma samples taken 0 to 20 min after GK-667 administration were immediately processed by the addition of formic acid and precipitation with ice-cold methanol. The supernatants were then analyzed for all analytes, including the intact prodrug. This was essential to ensure the appropriate determination of highly labile GK-667 at the first sampling intervals, and the whole procedure was validated for this purpose. […] Thus, all following plasma samples were immediately shock-frozen in liquid nitrogen and stored at -80 °C until analysis.
For drug administration and blood sampling, light anesthesia was induced in rabbits with a mixture of ketamine (25 mg/kg, i.m.) and midazolam (2.5 mg/kg, i.m.); sedation was then maintained with midazolam when needed. The blood withdrawn from the animals was compensated with an appropriate volume of sterile saline. All in vivo experiments and procedures were approved and supervised by the Animal Welfare Committee of the Faculty of Medicine in Hradec Kralove (Charles University), and the experiments were performed in compliance with the ARRIVE guidelines.
Standard noncompartmental analysis was performed using Kinetica software (version 4.0, Thermo Fisher Scientific Inc., USA). The population parameter estimation for nonlinear mixed effect models was conducted using Monolix version 2019R2 software (Antony, France: Lixoft SAS, 2019, http://lixoft.com/products/monolix/). The stochastic approximation expectation maximization (SAEM) algorithm coupled with Markov Chain Monte Carlo (MCMC) without the use of approximations (linearization) was used for the estimation of the likelihood. For evaluation of the goodness-of-fit, the following plots were assessed: observed versus individual predicted concentrations, weighted residuals versus time and weighted residuals versus predictions. Individual parameter values were obtained as empirical Bayes estimates. A visual predictive check with 1000 simulated data sets was performed.

Series [4] is described as follows: Population pharmacokinetic analysis in rabbits. Format: in vivo, rabbit. Conditions: population median. An excerpt: All model parameters of ICRF-193 and ICRF-193met could not be simultaneously estimated by stochastic approximation expectation maximization (SAEM) in one step. […] A maximum likelihood estimation was used to calculate the parameters CLmet, CLother, V4, and CLICRF-193met. For the remaining parameters of the parent-metabolite model (Fig. S5), a maximum a posteriori (MAP) estimation was adopted. The residual error in the population kinetic analysis was best described with a proportional model.
Standard noncompartmental analysis was performed using Kinetica software (version 4.0, Thermo Fisher Scientific Inc., USA). The population parameter estimation for nonlinear mixed effect models was conducted using Monolix version 2019R2 software (Antony, France: Lixoft SAS, 2019, http://lixoft.com/products/monolix/). […] For evaluation of the goodness-of-fit, the following plots were assessed: observed versus individual predicted concentrations, weighted residuals versus time and weighted residuals versus predictions. […]
Hydrolysis of GK-667 is very fast and the parent compound was essentially completely cleared from plasma within 10 min after injection. ICRF-193 was quantitatively dominating at the first sampling interval (5 min). […]

A short description of series [5]: Post-preparation stability of the extracted analytes in autosampler (8 °C). In kind it is physicochemical. The method, then: Linearity was tested within the concentration range of 0.2 – 100 μM for all compounds in DMEM, the buffer and plasma and 10-100 pmol/106cells in NVCMs (method I). For […]
Unweighted and weighted (1/x and 1/x2) linear regression was applied to obtain the best fitting calibration model.
Accuracy and precision were calculated at 4 levels (LLOQ, low, medium and high concentrations). Five quality control (QC) samples were used for all concentration levels. […]
(§1) Stability of the analytes was examined at low and high concentrations. Process s tability (n=3) in plasma was tested for 20 min at either laboratory temperature (23 °C) or on ice (4 °C, only for GK-667). Post-preparation stability was examined for 8 to 10 h in an autosampler (8 °C, n=3) for all treated matrices. […]
plasma was tested at -80 °C and the freezing cycle was repeated twice (n=3). The buffer, DMEM, NVCMs and plasma samples containing GK -667 from in vitro studies and from first intervals of pharmacokinetic study (up to 20 min) w ere treated and analyzed immediately after […]

Series [6] in a line: Approximate solubility in distilled water at room temperature. Particulars: reason why it was not administered separately. In kind it is physicochemical. How it is done: The syntheses of the target prodrugs were performed according to a known three-step procedure with some modifications. Target prodrugs GK-667, GK-678 and GK-691 were obtained in 34%, 37% and 17% overall yields, respectively. […] The resulting solutions remained physically stable for at least two hours at room temperature.

The nature of series [7]: Process stability in untreated plasma. In kind it is in vitro ADME, rabbit. Conditions: 23 °C, 20 min. How it is done: Linearity was tested within the concentration range of 0.2 – 100 μM for all compounds in DMEM, the buffer and plasma and 10-100 pmol/106cells in NVCMs (method I). For method II, the concentration ranges 0.01-15 μM and 0.01-1 μM were used for determination of ICRF-193 and ICRF-193met in plasma, respectively. Unweighted and weighted (1/x and 1/x2) linear regression was applied to obtain the best fitting calibration model. […]
as §1

Series [8] is described as follows: Freeze-thaw and storage stability in plasma at -80 °C. Format: in vitro ADME, rabbit. Conditions: for % of initial concentration, 1st freeze-thaw cycle / % of initial concentration, 2nd freeze-thaw cycle: plasma, -80 °C. How it is done:
ICRF-193 and ICRF-193met in plasma, respectively. Unweighted and weighted (1/x and 1/x2) linear regression was applied to obtain the best fitting calibration model. […]
as §1
plasma was tested at -80 °C and the freezing cycle was repeated twice (n=3). […]

For series [9] the following is noted: 100 µM, same conditions, compared with GK-667; cited from earlier work.
Series [10] relates to neonatal ventricular cardiomyocytes (NVCMs). Briefly: In vitro cardioprotection bioassay against daunorubicin toxicity (LDH release). In kind it is cell-based, rat. Particulars: 3 h preincubation, DAU 1.2 µM, LDH release after 48 h. How it is done: NVCMs were isolated in-house from 1- to 3-day-old Wistar rats as described previously. The use of animals and experimental protocols were approved by Charles University, Faculty of Pharmacy Animal Welfare Committee. All experiments were performed in accordance with Directive 2010/63/EU on the Protection of Animals Used for Scientific Purposes and in compliance with Animal Research: Reporting of In Vivo Experiments (ARRIVE) guidelines. Newly isolated cardiomyocytes were left for 40 h to form a monolayer of spontaneously beating cardiomyocytes in seeding medium (DMEM/F12 supplemented with 10% HS, 5% FBS, 4% PYR and 1% P/S), which was then replaced with culture medium (DMEM/F12 supplemented with 5% FBS, 4% PYR and 1% P/S). The medium was replaced again after 24 h for new culture medium.
After 3 h, DAU solution (1.2 µM) was added to the media. After another 3 h, the medium was replaced with new (drug-free) exposure medium, and the cardiomyocytes were then kept until the end of the experiment. In addition to cytoprotective properties, the toxicity of the studied agent was also examined; this experiment was performed as described above with only the DAU addition step omitted.
Forty-five hours after the last medium exchange, a sample of medium was taken from each well to assess lactate dehydrogenase (LDH) activity[27]–[29]. For details, see the Supplementary material.
1.5 LDH activity evaluation
The control wells were treated with lysis buffer (0.1 M potassium phosphate, 1% Triton
X-100, 1 mM DTT, 2 mM EDTA; pH 7.8; 15 min; room temperature) to measure the total
cellular LDH level (sum of the activity in the control medium and the lysate). The activity of
LDH was assayed in Tris-HCl buffer (pH 8.9) containing 35 mM sodium lactate and 5 mM
NAD+. The rate of NAD+ reduction was monitored spectrophotometrically at 340 nm for 2 min.
The slope of the linear region and molar absorption coefficient e = 6.22*10 3 M/cm were used
to calculate the LDH activity, and the data were expressed as a percentage of total L DH activity. […]
In general terms: Release of lactate dehydrogenase indicates damage to the cell membrane.

Series [11] has as its system topoisomerase IIβ (TOP2B). Particulars: compared with DEX; cited from earlier work.
[12] abbreviates: male, New Zealand White, rabbit, plasma, iv, rabbits n = 6, GK-667 5 mg/kg i.v., NCA.
Setting [13] is: rabbits n = 6, GK-667 5 mg/kg i.v., NCA.

Usually clearance stands for a measure of how efficiently the substance is removed, as volume per time. Turning to `C[C@@H](CN1CC(=O)NC(=O)C1)N1CC(=O)NC(=O)C1` [DEX, dexrazoxane], in [1], the clearance is on record as 0.3 L/h/kg and the elimination half-life was 2.0 h. For the same molecule, the “concentrations with significant protective effects against DAU toxicity” value in [2] was not below 10 µM.
By half-life is commonly meant how long it takes for the measured level to halve. The Cmax is the peak of the concentration-time curve. The AUC is the area under the concentration-time curve, a measure of exposure. Read a high AUC as high exposure. As usually defined, the AUC(0-t) is exposure summed from dosing to a finite time, without extrapolation to infinity. As usually defined, the MRT is the average time that molecules of a dose stay in the body. The term Tmax denotes the time from dosing to the highest level. On to `C[C@H]([C@H](C)N(CC(N)=O)CC(=O)O)N(CC(N)=O)CC(=O)O` [ICRF-193met], for which, in [3] (male, New Zealand White, rabbit, plasma, iv, 5 mg/kg), the half-life is 84 min. In addition, the Cmax in series [3] (male, New Zealand White, rabbit, plasma, iv, 5 mg/kg, rabbits n = 6, GK-667 5 mg/kg i.v., NCA) was 800 nM; in series [3] (setting [13]) it was 830 nM. The same molecule yielded an AUC in series [3] (setting [12]) of 2.7 µM·h. For the same molecule, the AUC(0-t) in series [3] (setting [12]) came out at 2.6 µM·h. Further, in series [3] (setting [12]), the MRT turned out to be 2.6 h. Moreover, the k el in [3] (male, New Zealand White, rabbit, plasma, iv, rabbits n = 6, GK-667 5 mg/kg i.v., NCA, read-out: λz (converted)) was 0.000144 s⁻¹. Further, the Tmax is 2 h in series [3] (male, New Zealand White, rabbit, plasma, iv, rabbits, GK-667 5 mg/kg i.v., read-out: median tmax) and 2 h in series [3] (setting [13]). In [3] (setting [13]), this molecule showed an AUMClast of 6.5 h^2∙µM. Besides, in series [3] (setting [13]), the AUMCtot stood at 7.1 h^2∙µM. The V4 in series [4] (distribution volume for ICRF-193met) worked out at 0.31 L/kg. The same molecule gave a CLICRF-193met in [4] (total clearance of ICRF-193met) of 0.17 L/h/kg. The “percentage of initial concentration in autosampler” value in series [5] (extracted DMEM, 100 µM, 0 h) is recorded as 101.5%; in series [5] (extracted DMEM, 100 µM, 8 h), 102.1%; in [5] (extracted DMEM, 100 µM, 10 h) it was 102.7%; in [5] (extracted NVCMs, 100 pmol/106 cells, 0 h), 100.0%; in series [5] (extracted NVCMs, 100 pmol/106 cells, 8 h), 97.7%; in series [5] (extracted NVCMs, 100 pmol/106 cells, 10 h) it was 95.0%. Besides, the “percentage of initial concentration in autosampler” value in series [5] (extracted buffer, 100 µM, 0 h) is 102.3%; in series [5] (extracted buffer, 100 µM, 8 h), 102.0%; in series [5] (extracted plasma, 100 µM, 0 h) it was 100.4%; in [5] (extracted plasma, 100 µM, 8 h), 96.5%; in series [5] (extracted plasma, 100 µM, 10 h) it was 99.1%. Further, in [6], the “solubility (in words)” value was “poor solubility”. Moreover, in series [7], the “stability in untreated plasma at laboratory temperature” value is “stable”. Also, the “degradation in plasma on storage” value in series [8] (-80 °C for 1 month) is on record as “no significant degradation”. In addition, the entries for the “% of initial concentration, 1st freeze-thaw cycle” value in series [8] (initial concentration 0.05 µM) and in series [8] (initial concentration 1.00 µM) were 94.1 ± 4.3% and 93.9 ± 5.7%, respectively. Also, the figures for the “% of initial concentration, 2nd freeze-thaw cycle” value in series [8] (initial concentration 0.05 µM) and in series [8] (initial concentration 1.00 µM) were 91.7 ± 0.7% and 91.4 ± 7.0%, respectively.
Regarding `CC(C)COC(=O)OCN1C(=O)CN(CCN2CC(=O)N(COC(=O)OCC(C)C)C(=O)C2)CC1=O` [sobuzoxane], in series [9], the “decomposition in DMEM” value was “much slower”.
For ICRF-193 [reference compound], the “lowest concentration with significant protection against DAU-induced toxicity” value in [10] is 0.3 µM. Further, the “potency in the TOP2B inhibitory assay” value in [11] was “markedly higher potency”.
